Broadly, the EC50 is the concentration needed to bring the measured effect to its halfway point. By CC50 is commonly meant the concentration at which the toxic effect on the cells reaches its halfway point.

In data set [1] the test system is IRF-Lucia luciferase reporter (ISRE) in THP1-Dual cells. As to the kind of experiment: THP1-Dual IRF-Lucia luciferase reporter assay (ISRE activation). Type of data set: cell-based, human. Particulars: THP1-Dual; for EC50: Homo sapiens, 8-point dose response. The method, boiled down:
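THP1-Dual cells were differentiated with 5 ng/mL PMA for 48 h at 37° C, washed, then treated with compounds at 10 μM final for 24 h; LPS at 313 ng/mL served as control. ISRE-driven Lucia luciferase in supernatant was read by luminescence.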
(A reporter such as luciferase makes a cellular process visible.)

Data set [2] in a line: THP1-Dual cytotoxicity (Cell Titer Glo, ATP). Particulars: human, THP1-Dual cells. Format: cell-based, human. The method, boiled down:
(§1)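 Human THP1-Dual cells were treated across an 8-point dose-response range. Cytotoxicity was measured in-plate by CellTiter-Glo luminescence, which quantifies ATP as a marker of metabolically active cells, and CC50 was taken as the 50% cytotoxic concentration.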

Data set [3] concerns IRF-Lucia luciferase reporter (ISRE) in J774-Dual cells. As to the kind of experiment: J774-Dual IRF-Lucia luciferase reporter assay (ISRE activation). Format: cell-based, mouse. Particulars: J774-Dual. How it is done: First, optimal assay conditions and assay quality in 384-well format were determined. As mentioned, the mouse macrophage J774 cell line (J774-Dual, InvivoGen) stably transfected with the same inducible reporters described above (e.g., IRF-Lucia luciferase and NF-κB-SEAP) was used. The responsiveness of the J774-Dual cell line was investigated in an array of assay conditions to obtain sensitive and reproducible results for the activation of the IRF and NF-κB reporters. An optimal plating density and conditions for these cells was established for these cells in a 384-well format. Assay work-flow is similar to that discussed above for the THP1-Dual assay without a need for cell differentiation. Thus, cells are seeded directly in growth medium and incubated at 37° C. in a 5% C02 incubator for 24 hours prior to the programmed treatments being added as described herein.
The primary high throughput screen used the HTS platform of human THP1 monocyte cells containing the IRF-Lucia luciferase and NFκB-SEAP (secreted embryonic alkaline phosphatase) dual reporter (THP1-Dual, Invivogen), enabling the simultaneous study of the IRF and NFκB signaling pathways respectively. As discussed, the Lucia luciferase reporter gene is under the control of an ISG54 (interferon-stimulated gene) minimal promoter in conjunction with five interferon-stimulated response elements (ISRE). The SEAP gene is driven by an IFNβ minimal promoter fused to five copies of the NFκB consensus transcriptional response element and three copies of the c-Rel binding site. Both IRF-Lucia luciferase and NFκB-SEAP reporter proteins are secreted and readily measurable in the cell culture supernatant when using QUANTI-Luc™ and QUANTI-Blue™ detection reagents, respectively. Identified “hits” were confirmed in a secondary screen with an 8-point dose response curve. Hits were further screened for activity in the mouse using the mouse J774 macrophage-like cell line containing the identical reporter constructs (J774-Dual, Invivogen).
The OTRADI Small Molecule Library of approximately 246,000 diverse compounds (see below for description) was screened using the THP1-Dual based HTS platform described above. All transfer steps in the screen are fully automated, thus reducing variability. Primary screening included a single data point or dose for each molecule. After data normalization was applied for each assay run, “hit” selection was performed on the plates that pass the quality control (QC) criterion. Hits were defined as samples having values above the activity cutoff determined based on noise level of the assay to reduce false positive rates. In the pilot study discussed above this activity value was >3σ above the ISRE mean with the added criteria of NFκB activation being lower than […] from the mean to identify IRF selective compounds. The ratio of ISRE:NFκB activity was also calculated as a selectivity index for prioritizing hit selection. Primary hits underwent secondary screening to determine the 50% effective concentration (EC50) and 50% cytotoxic concentration (CC50) of these agents using an 8-point dose-response curve in the human THP1-Dual cells. Cytotoxicity was measured in the plate using Cell Titer Glo (Promega). Identified candidate compounds were further screened (orthogonal screen) for cross species activity in the validated mouse J774-Dual assay using an 8-point dose-response format to determine EC50 and CC50 values as well as ISRE:NFκB ratios. A general process flow for the experimental design laid out above is depicted at FIG. 12.

Data set [4] relates to SH-SY5Y cells. As to the kind of experiment: Gene induction in SH-SY5Y cells (qtPCR). Format: cell-based, human. Particulars: 20 μM, 3 hours, preliminary results. How it is done:
FIG. 11 is a bar graph showing that the human-specific IRF activator AV-C induces robust IFIT1 and RSAD2 expression, with no increase in TNF expression. SH-SY5Y cells were treated with 20 μM AV-C for 3 hours. RNA was collected from cell pellets and qtPCR was performed with indicated primers. Values at FIG. 11 are normalized to actin and presented as fold change over vehicle control.
To determine if the human specific IRF activator, AV-C could induce IRF activated genes, the human neuroblastoma cell line SH-SY5Y was stimulated with 20 μM AV-C for 3 hours. […] Specifically, as mentioned, SH-SY5Y cells were treated with 20 μM AV-C for 3 hours. RNA was collected from cell pellets and qtPCR was performed with indicated primers. Values at FIG. 11 are normalized to actin and presented as fold change over vehicle control.

In data set [5] the test system is THP1-Dual cells. As to the kind of experiment: THP1-Dual cytotoxicity (Cell Titer Glo, ATP). Type of data set: cell-based, human. Particulars: Human Reporter Cell Line; read-out: Thp1 cytotox CC50. In outline:
as §1

For data set [6], the system named is J774-Dual cells. As to the kind of experiment: J774-Dual cytotoxicity. Format: cell-based, mouse. Particulars: Mouse Reporter Cell Line; read-out: J774 cytotox CC50. In outline:
(§2)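 Orthogonal cross-species screen in mouse J774-Dual cells using 8-point dose-response format. Cytotoxicity measured in-plate by CellTiter-Glo luminescence, giving CC50 alongside EC50 and ISRE:NFκB ratios.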

A short description of data set [7]: J774-Dual cytotoxicity. Type of data set: cell-based, mouse. Particulars: mouse, J774-Dual cells, Mouse Reporter Cell Line; read-out: J774 cytotox CC50. The method, boiled down: as §2

Like-named read-outs stand apart in the source and are kept apart here.

Turning to `CC(C)c1nnc(N2C(=O)c3oc4ccccc4c(=O)c3C2c2ccccc2F)s1` (centres unmarked) [AV-C, 1-(2-fluorophenyl)-2-(5-isopropyl-1,3,4-thiadiazol-2-yl)-1,2-dihydrochromeno[2,3-c]pyrrole-3,9-dione, reference compound], the EC50 in data set [1] (THP1-Dual control compound, read-out: EC50 ISRE activation) is 5.3 µM. Further, the “ISRE response, % of LPS maximum” value in data set [1] (25 μM) is 75%; in data set [3] (25 μM), 10%. For the same compound, the “IRF signal intensity relative to LPS control” value in data set [1] (at its EC50) was roughly 10%. Moreover, the CC50 in data set [2] (THP1-Dual control compound, 8-point dose response, read-out: CC50) turned out to be 7.9 µM. The selectivity ratio in data set [2] (read-out: Selectivity Index (CC50/EC50) (text: toxicity index)) turned out to be 1.5. Further, the “IRF activation in mouse cells” value in data set [3] was “minimal IRF activation”. The “IFIT1 and RSAD2 expression” value in data set [4] is listed as “increased”. The TNF expression result in data set [4] is “no increase”.
Take `O=C(Nc1ccc(N2CCN(C(=O)c3ccccc3Cl)CC2)cc1)c1ccc(OCc2ccccc2)cc1` [NA-49]: the values for the CC50 in data set [5] and in data set [6] were 27.9 µM and greater than 25 µM, respectively.
Take `O=C(Nc1ccc(N2CCN(C(=O)c3ccccc3Cl)CC2)cc1)c1ccc(OCc2ccccc2)cc1` [NA-50]: the EC50 in data set [1] (Human Reporter Cell Line, read-out: THP1 IRF EC50) was roughly 2.5 µM. In addition, the CC50 is 13.1 µM in data set [5] and greater than 25 µM in data set [7].

Values taken from patent US20220395500A1, “SMALL MOLECULE ACTIVATORS OF INTERFERON REGULATORY FACTOR 3 AND METHODS OF USE THEREOF” (Neuralexo, Inc., priority 2020, published 2022).
